Assay results published in patent US11572590B2, “Methods for evaluating tumor cell spheroids using 3D microfluidic cell culture device” (Dana-Farber Cancer Institute, Inc., priority 2017, dated 2023).
Read-outs that look alike come from different tables or passages of the source.

Assays:
Assay in all cases: SelectScreen Kinase Profiling, single point inhibition and IC50 for off-target kinases
Assay type in all cases: biochemical
[1] = target: T1, off-target kinases (Homo sapiens, UniProt Q12866); conditions: MERTK (cMER), ZLYTE, ATP Km app
T1 sequence (Q12866 21-999): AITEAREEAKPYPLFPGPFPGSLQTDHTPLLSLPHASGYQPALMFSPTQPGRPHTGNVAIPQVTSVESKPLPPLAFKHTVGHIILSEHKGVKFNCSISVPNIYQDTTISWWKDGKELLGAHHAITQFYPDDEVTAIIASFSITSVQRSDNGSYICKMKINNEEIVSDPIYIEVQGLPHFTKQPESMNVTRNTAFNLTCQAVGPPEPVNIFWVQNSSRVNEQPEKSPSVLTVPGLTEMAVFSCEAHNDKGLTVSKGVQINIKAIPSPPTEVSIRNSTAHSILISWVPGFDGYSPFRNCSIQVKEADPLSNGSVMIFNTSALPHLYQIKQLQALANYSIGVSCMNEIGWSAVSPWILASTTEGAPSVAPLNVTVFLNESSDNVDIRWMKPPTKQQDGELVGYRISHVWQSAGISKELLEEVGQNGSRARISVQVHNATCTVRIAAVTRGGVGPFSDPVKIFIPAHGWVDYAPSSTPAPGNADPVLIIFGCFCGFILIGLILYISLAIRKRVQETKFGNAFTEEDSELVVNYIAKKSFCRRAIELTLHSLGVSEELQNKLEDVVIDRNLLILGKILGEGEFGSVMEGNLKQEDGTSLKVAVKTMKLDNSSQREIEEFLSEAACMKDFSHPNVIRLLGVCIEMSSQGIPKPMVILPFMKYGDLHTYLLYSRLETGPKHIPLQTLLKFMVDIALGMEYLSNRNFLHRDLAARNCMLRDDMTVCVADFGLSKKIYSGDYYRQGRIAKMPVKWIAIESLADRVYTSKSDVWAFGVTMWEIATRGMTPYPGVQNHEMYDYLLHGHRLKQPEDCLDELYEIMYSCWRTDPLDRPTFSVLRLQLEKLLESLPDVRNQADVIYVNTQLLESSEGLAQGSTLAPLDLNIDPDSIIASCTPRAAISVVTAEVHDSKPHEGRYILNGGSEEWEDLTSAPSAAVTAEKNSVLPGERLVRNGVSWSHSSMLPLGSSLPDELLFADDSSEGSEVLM

[2] = target: off-target kinases (Homo sapiens, UniProt P28482); conditions: MAPK1 (ERK2), ZLYTE, ATP Km app
[3] = target: T2, off-target kinases (Homo sapiens, UniProt O60285); conditions: NUAK1 (ARK5), ATP Km app, Adapta
T2 sequence (O60285 1-661): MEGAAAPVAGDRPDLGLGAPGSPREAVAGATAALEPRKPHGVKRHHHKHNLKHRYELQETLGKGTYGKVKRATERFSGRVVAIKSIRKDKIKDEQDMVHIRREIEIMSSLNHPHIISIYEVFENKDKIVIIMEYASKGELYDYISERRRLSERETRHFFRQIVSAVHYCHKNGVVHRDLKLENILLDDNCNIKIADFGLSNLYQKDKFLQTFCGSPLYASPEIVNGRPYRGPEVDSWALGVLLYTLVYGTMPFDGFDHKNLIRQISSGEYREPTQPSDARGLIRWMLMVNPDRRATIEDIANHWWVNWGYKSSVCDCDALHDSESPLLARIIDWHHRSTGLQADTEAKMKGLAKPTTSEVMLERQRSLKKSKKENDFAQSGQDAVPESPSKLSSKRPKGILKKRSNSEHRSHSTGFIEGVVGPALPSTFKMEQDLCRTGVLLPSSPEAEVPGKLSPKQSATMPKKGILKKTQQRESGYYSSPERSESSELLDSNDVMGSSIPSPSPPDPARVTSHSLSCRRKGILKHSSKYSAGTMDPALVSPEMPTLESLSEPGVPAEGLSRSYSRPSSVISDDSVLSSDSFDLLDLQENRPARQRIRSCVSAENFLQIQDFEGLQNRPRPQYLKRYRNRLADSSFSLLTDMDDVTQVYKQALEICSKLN

Sequence of off-target kinases (Homo sapiens, UniProt P28482) (P28482 whole entry): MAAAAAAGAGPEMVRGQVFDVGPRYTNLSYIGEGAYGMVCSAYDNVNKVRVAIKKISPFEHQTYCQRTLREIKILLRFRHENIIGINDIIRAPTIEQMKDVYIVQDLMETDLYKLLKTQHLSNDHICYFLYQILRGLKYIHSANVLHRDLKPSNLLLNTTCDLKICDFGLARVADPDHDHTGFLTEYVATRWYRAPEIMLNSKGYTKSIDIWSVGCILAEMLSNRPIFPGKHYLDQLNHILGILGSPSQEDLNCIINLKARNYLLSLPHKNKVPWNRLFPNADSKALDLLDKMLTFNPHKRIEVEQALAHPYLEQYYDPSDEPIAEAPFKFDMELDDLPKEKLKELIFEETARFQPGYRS

Question: Which inhibition ([1]; read-out: % Inhibition 1) does the source give for N#Cc1cc(-c2ncnc(Nc3ccc(N4CCN(C5COC5)CC4)cc3)n2)ccc1OC1CCOCC1 [Compound 1, 5-(4-((4-(4-(oxetan-3-yl)piperazin-1-yl)phenyl)amino)-1,3,5-triazin-2-yl)-2-((tetrahydro-2H-pyran-4-yl)oxy)benzonitrile] here?
Answer: Its inhibition is 27%.

Question: And the inhibition ([1]; read-out: % Inhibition 2)?
Answer: Its inhibition is 22%.

Question: And the inhibition ([1]; read-out: % Inhibition Avg)?
Answer: Its inhibition is 24%.

Question: What about the inhibition ([2]; read-out: % Inhibition 1) of the same molecule?
Answer: The inhibition was 6%.

Question: What about the inhibition ([2]; read-out: % Inhibition 2) of the same molecule?
Answer: Its inhibition is 6%.

Question: What about the inhibition ([2]; read-out: % Inhibition Avg) of the same molecule?
Answer: Its inhibition is 6%.

Question: And the inhibition ([3]; read-out: % Inhibition 1)?
Answer: Its inhibition is 83%.

Question: And the inhibition ([3]; read-out: % Inhibition 2)?
Answer: The inhibition was 83%.

Question: And the inhibition ([3]; read-out: % Inhibition Avg)?
Answer: Its inhibition is 83%.
